The text below walks through data of PMC12030062, “From In Vitro Cytotoxicity to In Vivo Zebrafish Assays: A Study on 3,3-Dichloro β-, γ- and δ-Lactams and Their Biological Activity Profiles” (Pharmaceuticals, 2025).

≈ marks a conversion by molar mass, not a printed value.

Data set [1] in a line: Hemolysis assay with human erythrocytes. Format: cell-based. As to conditions: human, washed human erythrocyte suspension, pH 7.4; 10 µg/mL; read-out: degree of hemolysis. The procedure: (§1) In this context, non-hemolytic compounds are essential, as they enhance the safety and efficacy of lactam-based drugs by reducing adverse effects while maintaining their antitumor activity. In accordance with EU regulations (ISO 10993-4), the assessment of the biological compatibility of new compounds that may come into contact with the blood necessitates in vitro hemocompatibility evaluations. In this study, the extent of hemolysis induced by the different compounds was assessed by incubating them with an erythrocyte suspension. The hemolytic response of compounds 1–10 was evaluated at two concentrations (10 and 80 µg/mL), the results of which are presented in Figure 3.
(§2) • In Vitro Assay Using Human Erythrocytes • - Acquisition and Extraction of the Erythrocytes Human blood samples were obtained from the Banc de Sang i Teixits de Barcelona (Spain) from the Catalan Department of Health. Blood was deposited in tubes with the anticoagulant EDTA-K3. Blood samples were centrifuged at 3000 rpm and 4 °C for 10 min (Megafuge 2.0 R. Heraeus Instruments, Hanau, Germany) to induce sedimentation. Plasma was extracted with a Pasteur pipette. Next, the residual pellet was washed with PBS at pH 7.4. This procedure was repeated three times to remove residual leukocytes and platelets and to concentrate the erythrocytes. Following the last wash, the erythrocyte suspension was diluted (1:1) in PBS at pH 7.4 to obtain a suitable erythrocyte suspension (cell density of 8 × 10^9 cell/mL). • - Hemolysis Assay The hemolysis assay determined the capability of different compounds to induce the hemolysis of the erythrocyte membrane. Stock solutions of each compound at 1 mg/mL in PBS at pH 7.4 were prepared. Different volumes (10–80 μL) were placed in polystyrene tubes, and an aliquot of 25 µL of the erythrocyte suspensions was added to each tube. The final volume was 1 mL. The tubes were incubated at room temperature under rotatory conditions. Then, the tubes were centrifuged at 10,000 rpm for 5 min. The supernatants’ absorbance at 540 nm (Shimadzu UV-160A, Shimadzu, Duisburg, Germany) was compared with that of the positive (erythrocytes hemolyzed with distilled water) and negative (erythrocyte suspension in PBS at pH 7.4) controls. The degree of hemolysis was determined using the following equation: Hemolysis (%) = 100 × (Abs − Abs0)/(Abs100 − Abs0) where Abs, Abs0, and Abs100 are the absorbance of the test samples, of the suspension treated with isotonic phosphate–buffered saline (PBS), and of the suspension of complete hemolysis treated with distilled water, respectively. • In Vitro Essay Using Cell Cultures The murine Swiss albino fibroblasts (3T3) and the squamous cell carcinoma (A431) cell lines were obtained from Celltec UB. Cells were grown in DMEM medium (4.5 g/L glucose) supplemented with 10% (v/v) FBS, 2 mM L-glutamine, 100 U/mL penicillin, and 100 µg/mL streptomycin at 37 °C with 5% CO2. Cells were routinely cultured in 75 cm^2 culture flasks and were trypsinized using trypsin–EDTA when the cells reached approximately 80% confluence. The trypan blue assay, which allows for the direct identification and enumeration of the live (unstained) and dead (blue) cells in the cell population, was used to evaluate the viability of the cells in the cell suspension obtained. • - Cell Viability Assays Cell lines of 3T3 (1 × 10^5 cells/mL) and A431 (5 × 10^4 cells/mL) were grown at defined densities in the 60 central wells of a 96-well plate. The cells were incubated for 24 h in 5% CO2 at 37 °C. Then, the spent medium was removed, and the cells were incubated for 24 h, with their corresponding compound solutions (1 mg/mL) previously diluted in a minimum amount of DMF (dimethylformamide) and then in DMEM medium supplemented with 5% FBS (100 µL) at the required concentration range (80 or 250 µg/mL). […]

The next data set deals with human erythrocytes. Description: Hemolysis assay with human erythrocytes. Format: cell-based. To be noted: from 10 to 80 µg/mL. The procedure: as §1, §2
The subject of data set [2] is A431 cell line (squamous cell carcinoma). Nature of the data set: Cell viability, MTT assay, A431. Format: cell-based. As to conditions: Homo sapiens, A-431, 24 h, 24 h incubation, MTT endpoint, A431; read-out: IC50 (MTT) A431. The procedure:
(§3) Two different endpoints, 3-(4,5-dimethyl-2-thiazolyl)-2,5-diphenyltetrazolium bromide (MTT) and neutral red uptake (NRU), were used to assess differences in cell-induced cytotoxicity. […] In addition, NRU evaluates the interaction of these drugs with the plasmatic membrane. Cell responses were determined from the MTT [16] and NRU [17] assays, using the two proposed cell lines. Cytotoxicity assays were performed at concentrations equal to 80 and 250 µg/mL. The IC50 value, referring to the half-maximal inhibitory concentration, was determined as a key parameter in cytotoxicity studies (Table 1). It plays a crucial role in evaluating cell viability and assessing cellular responses to various drugs or toxins. For cases where IC50 values were below 80 µg/mL, additional studies at lower concentrations were conducted to accurately determine these values. […] The selectivity index (SI), used as a measurement of action against the tumor cell line in comparison with a normal cell line, was also included.
as §2, with “°C.” for “°C. Then, the spent medium was removed, and the cells were incubated for 24 h, with their corresponding compound solutions (1 mg/mL) previously diluted in a minimum amount of DMF (dimethylformamide) and then in DMEM medium supplemented with 5% FBS (100 µL) at the required concentration range (80 or 250 µg/mL).”
(Formazan colour is commonly taken as a measure of viable cells.)

For data set [3], the system named is murine Swiss albino fibroblast (3T3) cell line. Nature of the data set: Cell viability, MTT assay, 3T3. Format: cell-based. To be noted: Mus musculus, 24 h, 24 h incubation, MTT endpoint. The procedure:
as §3
as §2, with “°C.” for “°C. Then, the spent medium was removed, and the cells were incubated for 24 h, with their corresponding compound solutions (1 mg/mL) previously diluted in a minimum amount of DMF (dimethylformamide) and then in DMEM medium supplemented with 5% FBS (100 µL) at the required concentration range (80 or 250 µg/mL).”

Data set [4] has as its system A431 cell line (squamous cell carcinoma). Nature of the data set: Cell viability, NRU assay, A431. Format: cell-based, human. The procedure:
as §3
as §2, with “°C.” for “°C. Then, the spent medium was removed, and the cells were incubated for 24 h, with their corresponding compound solutions (1 mg/mL) previously diluted in a minimum amount of DMF (dimethylformamide) and then in DMEM medium supplemented with 5% FBS (100 µL) at the required concentration range (80 or 250 µg/mL).”

The subject of data set [5] is murine Swiss albino fibroblast (3T3) cell line. Description: Cell viability, NRU assay, 3T3. The format is cell-based. To be noted: Mus musculus, 24 h incubation, NRU endpoint. The procedure:
as §3
as §2, with “°C.” for “°C. Then, the spent medium was removed, and the cells were incubated for 24 h, with their corresponding compound solutions (1 mg/mL) previously diluted in a minimum amount of DMF (dimethylformamide) and then in DMEM medium supplemented with 5% FBS (100 µL) at the required concentration range (80 or 250 µg/mL).”

For data set [6], the system named is squamous carcinoma cells (A431) in comparison with the fibroblast (3T3) cell line. Also on record: method as in PMID 38731527. As to conditions: cited from earlier work.

As a reminder, the IC50 is the concentration at which inhibition is half-maximal. Take `CC(C)(C)N1CC(CCl)C(Cl)(Cl)C1=O` (stereo not drawn) [Compound 2]: in data set [1], the hemolysis at 10 µg/mL amounted to 0.02%. Also, in the data set on human erythrocytes, the “change of hemolytic response as concentration increased” value is on record as “three-”. In addition, the IC50 in data set [2] was more than 250 µg/mL; in data set [3], more than 250 µg/mL; in data set [4] (Homo sapiens, A-431, 24 h, 24 h incubation, NRU endpoint, A431) it was 232 ± 4.23 µg/mL (≈ 896 µM); in data set [5], more than 250 µg/mL. The “SI250, pseudo-selectivity index (NRU)” value in data set [4] (250 µg/mL, 24 h, A431 vs 3T3, NRU) is recorded as “highest SI250 values”. For the same compound, the “SI (NRU), selectivity index” value in data set [4] (SI = IC50 (3T3)/IC50 (A431), NRU) was more than 1.08. Also, in data set [6], the “IC50 (lowest values among five products)” value is 100 to 250 µg/mL.
